{
  "source": "patent US5547870A",
  "about": "“Oxalate decarboxylate” (Zeneca Limited, priority 1994, dated 1996)",
  "molecules": {"B1": {"name": "Collybia velutipes oxalate decarboxylase, purified native enzyme, peak A (eluting at pH 3.3 on chromatofocusing) (Flammulina velutipes) (protein)", "chain": "VPLASTTTGTGTATGTSTAAEPSATVPFASTDPNPVLWNETSDPALVKPERNQLGATIQGPDNLPIDLQNPDLLAPPTTDHGFVGNAKWPFSFSKQRLQTGGWARQQNEVVLPLATNLACTNMRLEAGAIRELHWHKNAEWAYVLKGSTQISAVDNEGRNYISTVGPGDLWYFPPGIPHSLQATADDPEGSEFILVFDSGAFNDDGTFLLTDWLSHVPMEVILKNFRAKNPAAWSHIPAQQLYIFPSEPPADNQPDPVSPQGTVPLPYSFNFSSVEPTQYSGGTAKIADSTTFNISVAIAVAEVTVEPGALRELHWHPTEDEWTFFISGNARVTIFAAQSVASTFDYQGGDIAYVPASMGHYVENIGNTTLTYLEVFNTDRFADVSLSQWLALTPPSVVQAHLNLDDETLAELKQFATKATVVGPVN", "notes": "chromatofocusing peak A (pH 3.3); about 55 kDa when deglycosylated"}},
  "key": {"[1]": {"molecular_target": "T1, Collybia velutipes oxalate decarboxylase, purified native enzyme, peak A (eluting at pH 3.3 on chromatofocusing) (Flammulina velutipes, UniProt Q9UVK4)", "T1 construct": "chromatofocusing peak A (pH 3.3); about 55 kDa when deglycosylated", "T1 sequence (Q9UVK4 21-447)": "B1 chain", "test": "Oxalate decarboxylase assay: liberation of 14CO2 from [14C]-oxalic acid; Lineweaver-Burk plots", "format": "biochemical, Collybia velutipes (strain S. A.T.C.C 13547)", "protocol": "(§1) The oxalate decarboxylase activity was also determined by measuring the liberation of ^14 CO2 from [^14 C]-oxalic acid (Amersham, 4.1 mCi/mmol). The enzyme assay was carried out in small glass vails which contained 1 ml of the following reaction mixture: 0.2M potassium citrate, pH 3.0, 0.005M potassium oxalate, pH 3.0, 5.6 nmoles (0.0227 μCi) of (^14 C)-oxalic acid and 0.2 ml of enzyme solution. The tubes were preincubated for 5 min before the addition of enzyme. The tubes were sealed with rubber-stoppers and incubated at 37° C. for 30 min in a shaking water bath. The reaction was terminated by injection of 0.2 ml of 50% v/v trichloroacetic acid through the rubber caps and the tubes were shaken for additional 60 min to trap all the ^14 CO2 evolved in the 0.2 ml methylbenzethonium hydroxide(Sigma) placed in a plastic vial inside the glass tube. The plastic wells were withdrawn and the contents transferred to 5 ml of toluene based scintillation fluid and radioactivity determined in a liquid scintillation counter. Blanks tubes were set up in which the 0.2 ml of 50% TCA was added before the enzyme or the enzyme was omitted. In kinetic experiments, the values were corrected for the radioactivity obtained from the boiled denatured enzyme.\n(§2) One unit was defined as the amount of enzyme releasing 1 μmole of ^14 CO2 per min at 37° C. under standard assay conditions. The overall assay efficiency was usually between 60-70%. Protein was determined by Lowry microassay method (Peterson, Anal. Biochem. 83:346 (1977)). Vmax and Km were determined by Lineweaver-Burk plot (Lineweaver and Burk, J. Am. Chem. Soc. 56:658-666 (1934))."}, "[2]": {"substrate": "O=C(O)C(=O)O", "test": "Oxalate decarboxylase assay: liberation of 14CO2 from [14C]-oxalic acid; Lineweaver-Burk plots", "format": "biochemical, Collybia velutipes (strain S. A.T.C.C 13547)", "settings": "other: peak A enzyme, Lineweaver-Burk plot, 0.2M potassium citrate pH 3.0, 37° C.", "protocol": "as §1, with “The reaction was terminated by injection of 0.2 ml of 50% v/v trichloroacetic acid through the rubber caps and the tubes were shaken for additional 60 min to trap all the ^14 CO2 evolved in the 0.2 ml methylbenzethonium hydroxide(Sigma) placed in a plastic vial inside the glass tube.” left out, “Blanks tubes were set up in which the 0.2 ml of 50% TCA was added before the enzyme or the enzyme was omitted.” left out\nas §2, with “The overall assay efficiency was usually between 60-70%.” left out"}},
  "note": "Counter-ions that a name gives are not always drawn.",
  "data": [
    {"molecule": "O=S(=O)(O)c1cc[c]([Hg][Cl])cc1", "note": "[p-chloromercuribenzenesulfonic acid]", "values": [
      {"measurement": "activity retained in the presence of sulfhydryl group reagent", "setting": "[1]; 50 mM reagent", "result": 95, "unit": "%"}
    ]},
    {"molecule": "O=C(O)CI", "note": "[iodoacetate]", "values": [
      {"measurement": "activity at 50000 µM", "setting": "[1]; read-out: activity retained in the presence of sulfhydryl group reagent", "result": 95, "unit": "%"}
    ]},
    {"molecule": "O=C(O)C(=O)O", "note": "[potassium oxalate]", "values": [
      {"measurement": "Vmax", "setting": "[1]; peak A enzyme, potassium oxalate as substrate, Lineweaver-Burk plot, pH 3.0, 37° C.", "result": 166, "unit": "µmol/min/mg"}
    ]},
    {"molecule": "O=P(O)(O)O", "note": "[phosphate ions, phosphate]", "values": [
      {"measurement": "Ki", "setting": "[1]; competitive inhibition, 90 mM PO4^2- added to the reaction, read-out: Ki (phosphate ions)", "result": 9, "unit": "mM"}
    ]},
    {"molecule": "B1", "values": [
      {"measurement": "Km", "setting": "[2]", "result": 4.5, "unit": "mM"},
      {"measurement": "Vmax", "setting": "[2]", "result": 166, "unit": "µmol/min/mg"}
    ]}
  ]
}
